Columns and labels:
[1] = target: Mu-type opioid receptor (Homo sapiens) (UniProt P35372); assay: Antagonist activity at human cloned mu opioid receptor expressed in CHO cells assessed as inhibition of DAMGO-stimulated [35S]GTPgammaS binding; type: functional, cell-based
Homo sapiens [2] = species on record: Homo sapiens; assay: Ratio of Ke for human cloned mu opioid receptor to Ke for human cloned kappa opioid receptor
[3] = target: Kappa-type opioid receptor (Homo sapiens) (UniProt P41145); assay: Antagonist activity at human cloned kappa opioid receptor expressed in CHO cells assessed as inhibition of U69593-stimulated [35S]GTPgammaS binding; type: functional, cell-based
Kappa-type opioid receptor (Homo sapiens), sequence (P41145 whole entry): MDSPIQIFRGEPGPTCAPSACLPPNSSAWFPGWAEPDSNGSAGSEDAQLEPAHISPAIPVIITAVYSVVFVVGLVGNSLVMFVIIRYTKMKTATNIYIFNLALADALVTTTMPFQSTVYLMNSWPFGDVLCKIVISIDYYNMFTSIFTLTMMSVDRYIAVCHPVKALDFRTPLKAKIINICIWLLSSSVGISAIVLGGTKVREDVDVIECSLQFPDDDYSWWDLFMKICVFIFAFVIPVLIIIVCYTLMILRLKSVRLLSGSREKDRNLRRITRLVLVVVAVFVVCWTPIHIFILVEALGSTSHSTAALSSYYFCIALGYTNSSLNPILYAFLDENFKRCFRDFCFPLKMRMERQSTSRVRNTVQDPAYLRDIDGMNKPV

Homo sapiens [4] = species on record: Homo sapiens; assay: Ratio of Ke for human cloned delta opioid receptor to Ke for human cloned kappa opioid receptor
[5] = target: Delta-type opioid receptor (Homo sapiens) (UniProt P41143); assay: Antagonist activity at human cloned delta opioid receptor expressed in CHO cells assessed as inhibition of DPDPE-stimulated [35S]GTPgammaS binding; type: functional, cell-based
Delta-type opioid receptor (Homo sapiens), sequence (P41143 whole entry): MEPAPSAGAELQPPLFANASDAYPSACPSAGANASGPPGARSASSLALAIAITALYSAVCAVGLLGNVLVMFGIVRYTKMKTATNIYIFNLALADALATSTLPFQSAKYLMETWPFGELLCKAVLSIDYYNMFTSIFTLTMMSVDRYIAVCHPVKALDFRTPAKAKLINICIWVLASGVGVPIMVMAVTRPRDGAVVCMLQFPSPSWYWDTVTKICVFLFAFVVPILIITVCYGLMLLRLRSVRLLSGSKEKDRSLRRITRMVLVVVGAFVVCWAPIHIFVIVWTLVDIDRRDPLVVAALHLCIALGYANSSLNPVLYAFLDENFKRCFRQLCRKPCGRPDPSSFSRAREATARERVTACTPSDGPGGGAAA

[6] = target: Mu-type opioid receptor (Homo sapiens) (UniProt P35372); assay: Ratio of JDTic Ke to compound Ke for human cloned mu opioid receptor expressed in CHO cells; type: cell-based
[7] = target: Kappa-type opioid receptor (Homo sapiens) (UniProt P41145); assay: Ratio of compound Ke to JDTic Ke for human cloned kappa opioid receptor expressed in CHO cells; type: cell-based

Mu-type opioid receptor (Homo sapiens), sequence (P35372 whole entry): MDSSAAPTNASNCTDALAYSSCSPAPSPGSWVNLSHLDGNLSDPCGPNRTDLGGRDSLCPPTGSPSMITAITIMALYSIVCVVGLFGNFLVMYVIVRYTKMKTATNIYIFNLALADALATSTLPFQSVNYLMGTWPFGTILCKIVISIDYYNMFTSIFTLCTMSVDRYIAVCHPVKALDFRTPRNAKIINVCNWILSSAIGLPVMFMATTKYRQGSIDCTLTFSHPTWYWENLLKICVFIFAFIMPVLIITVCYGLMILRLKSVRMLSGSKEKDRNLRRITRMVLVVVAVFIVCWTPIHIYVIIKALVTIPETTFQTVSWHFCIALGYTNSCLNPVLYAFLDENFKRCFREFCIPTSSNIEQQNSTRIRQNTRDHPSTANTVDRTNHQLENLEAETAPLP

Compound	Ke [1] [nM]	Ratio Ke (Homo sapiens [2])	Ke [3] [nM]	Ratio Ke (Homo sapiens [4])	Ke [5] [nM]	Ratio Ke [6]	Ratio Ke [7]
COc1ccc2c(c1)CN[C@@](C)(C(=O)N[C@H](CN1CC[C@@](C)(c3cccc(O)c3)[C@@H](C)C1)C(C)C)C2	3.8	4	0.93	40	36.8		
CC[C@H](C)[C@@H](CN1CC[C@@](C)(c2cccc(OC)c2)[C@@H](C)C1)NC(=O)[C@@]1(C)Cc2ccc(O)cc2CN1			0.52		2100		
CC[C@H](C)[C@@H](CN1CC[C@@](C)(c2cccc(OC)c2)[C@@H](C)C1)NC(=O)[C@H]1Cc2ccc(O)cc2CN1	5.1		0.96				
COc1cccc([C@]2(C)CCN(C[C@@H](NC(=O)[C@H]3Cc4ccc(O)cc4CN3C)C(C)C)C[C@@H]2C)c1	880	204	4.3	535	2300		
CC[C@H](C)[C@@H](CN1CC[C@@](C)(c2cccc(O)c2)[C@@H](C)C1)NC(=O)[C@H]1Cc2ccc(O)cc2CN1C	7.2	66	0.11	1200	132		
CC(C)[C@@H](CN1CC[C@@](C)(c2cccc(O)c2)[C@@H](C)C1)NC(=O)[C@H]1Cc2ccc(O)cc2CN1C	210	1310	0.16	3070	491		
CC(C)[C@@H](CN1CC[C@@](C)(c2cccc(O)c2)[C@@H](C)C1)NC(=O)[C@H]1Cc2ccc(O)cc2CN1		1260		3830			
CC[C@H](C)[C@@H](CN1CC[C@@](C)(c2cccc(OC)c2)[C@@H](C)C1)NC(=O)[C@H]1Cc2ccc(O)cc2CN1C	360	180	2.03		> 10000		
CC[C@H](C)[C@@H](CN1CC[C@@](C)(c2cccc(O)c2)[C@@H](C)C1)NC(=O)[C@H]1Cc2ccc(O)cc2CN1		100		800		8	
CC[C@H](C)[C@@H](CN1CC[C@@](C)(c2cccc(O)c2)[C@@H](C)C1)NC(=O)[C@@]1(C)Cc2ccc(OC)cc2CN1	17.5	5	3.5	5	18.7		
CC[C@H](C)[C@@H](CN1CC[C@@](C)(c2cccc(O)c2)[C@@H](C)C1)NC(=O)[C@@]1(C)Cc2ccc(O)cc2CN1	8.7		0.11				
COc1ccc2c(c1)CN(C)[C@@](C)(C(=O)N[C@H](CN1CC[C@@](C)(c3cccc(O)c3)[C@@H](C)C1)C(C)C)C2	7		2.2				
CC(C)[C@@H](CN1CC[C@@](C)(c2cccc(O)c2)[C@@H](C)C1)NC(=O)[C@@]1(C)Cc2ccc(O)cc2CN1	3.6	120	0.03	28500	854		
COc1ccc2c(c1)CN[C@@H](C(=O)N[C@H](CN1CC[C@@](C)(c3cccc(O)c3)[C@@H](C)C1)C(C)C)C2		857		1970			3
COc1cccc([C@]2(C)CCN(C[C@@H](NC(=O)[C@H]3Cc4ccc(O)cc4CN3)C(C)C)C[C@@H]2C)c1	24	649	0.037	573	21.2		2
COc1cccc([C@]2(C)CCN(C[C@@H](NC(=O)[C@@]3(C)Cc4ccc(O)cc4CN3)C(C)C)C[C@@H]2C)c1			0.26		2200		
COc1cccc([C@]2(C)CCN(C[C@@H](NC(=O)[C@@]3(C)Cc4ccc(OC)cc4CN3)C(C)C)C[C@@H]2C)c1			15.2		> 10000		
